Earlier results on two compounds are cited in patent publication US20130053433A1, “FATTY ACID DERIVATIVES AND ANALOGS OF DRUGS” (The University of North Carolina at Chapel Hill, priority 2010, published 2013).

Broadly, the Kd is the constant that tells how readily two partners part at equilibrium.

The data set addresses albumin (Homo sapiens, UniProt P02768).

albumin, sequence (P02768 25-609): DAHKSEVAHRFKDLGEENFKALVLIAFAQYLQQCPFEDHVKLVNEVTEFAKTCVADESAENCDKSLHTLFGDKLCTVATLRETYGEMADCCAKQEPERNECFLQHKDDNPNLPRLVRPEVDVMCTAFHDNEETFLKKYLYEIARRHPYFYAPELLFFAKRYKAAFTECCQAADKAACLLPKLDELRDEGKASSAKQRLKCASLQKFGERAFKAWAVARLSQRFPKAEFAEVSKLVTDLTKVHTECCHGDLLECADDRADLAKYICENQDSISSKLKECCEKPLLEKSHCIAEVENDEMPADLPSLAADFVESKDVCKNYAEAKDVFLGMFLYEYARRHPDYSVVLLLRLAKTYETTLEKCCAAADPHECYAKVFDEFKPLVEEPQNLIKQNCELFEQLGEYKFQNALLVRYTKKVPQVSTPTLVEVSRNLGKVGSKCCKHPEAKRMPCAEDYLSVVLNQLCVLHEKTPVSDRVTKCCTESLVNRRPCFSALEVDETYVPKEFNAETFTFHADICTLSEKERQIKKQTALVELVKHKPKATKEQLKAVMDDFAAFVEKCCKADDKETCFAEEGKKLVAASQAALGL

For the compound `CC(=O)O[C@H]1C(=O)[C@@]2(C)[C@H]([C@H](OC(=O)c3ccccc3)[C@]3(O)C[C@H](OC(=O)[C@H](O)[C@@H](NC(=O)c4ccccc4)c4ccccc4)C(C)=C1C3(C)C)[C@]1(OC(C)=O)CO[C@@H]1C[C@@H]2O` [PTX, paclitaxel], the Kd (read-out: dissociation constant Kd for albumin, Paal, Muller et al. 2001) is ~10 µM.
Turning to `CCCCCCCCCCCCCCCCCC(=O)O` [stearic acid], the Kd for albumin entry (depending on total fatty acid concentration, Curry, Brick et al. 1999) is “in the range of μM to nM”.
